The target in assay [1] is human KHK-A (Homo sapiens (Human), UniProt P50053). Put plainly: KHK enzyme activity assay, human KHK-A (F1P production, RapidFire MS). Format: biochemical. The settings on record: fructose 1.25 mM, ATP 150 μM; average ± SEM; read-out: hKHK-A IC50. The protocol:
(§1) KHK Enzyme Activity Assay for Human KHK-C and Human KHK-A
(§2) The intrinsic potency for inhibition of KHK C or A activity may be measured using an enzymatic assay which measures the production of FIP. Compounds are prepared in DMSO and tested in a 10-point concentration curve, to create 3-fold serial dilutions of the compounds in a 96-well plate ranging from 20 μM to 1.02 nM. Enzyme is prepared in assay buffer [50 mM 4-(2-hydroxyethyl)piperazine-1-ethanesulfonic acid (HEPES), 10 mM potassium chloride, 100 mM magnesium chloride, 2 mM tris(2-carboxyethyl)phosphine (TCEP), 0.01% n-octyl glucoside] and incubated with compounds at RT for 15 min. The reaction is carried out in 100 μL volumes containing substrate concentrations of fructose (250 μM for KHK-C assay and 1.25 mM for KHK-A assay) and ATP (150 μM for both isoforms); which are further incubated at RT for 20 min. The reaction is then halted by the addition of stop buffer; consisting of 0.2% formic acid and 1 μg/ml ^13C6-fructose-6-phosphate (^13C6-F6P) internal standard. Plates are stored in −20° C. until RapidFire MS analysis.
(§3) RapidFire MS Analysis for Quantitation of F1P
(§4) An Agilent 300 RapidFire automated extraction system (Agilent, Santa Clara, Calif.) with three HPLC quaternary pumps is coupled to an Agilent 6495 triple quadrupole mass spectrometer (Agilent Technologies, Santa Clara, Calif.) equipped with an electrospray ionization (ESI) interface source. The RapidFire Mass Spec system is equipped with a reusable RapidFire C18 (type C) solid-phase extraction (SPE) cartridge (G9205 Å).
(§5) Solvent A, used for sample loading and washing, is 6 mM octylamine (Acros Organics 129495000) brought to pH 5.0 using acetic acid. Solvent B, used for sample elution, is 20% water in ACN containing 0.1% formic acid. Samples are sequentially analyzed by aspirating 10 μL onto the collection loop under vacuum directly from multiwell plates. The 10 μL of sample is loaded onto the C18 cartridge and washed using solvent A at a flow rate of 1.25 mL/min for 5000 ms. The retained analytes are then eluted to the mass spectrometer using solvent B at a flow rate of 1.25 mL/min for 5000 ms. The system is re-equilibrated using solvent at flow rate of 1.25 mL/min for 2000 ms.
(§6) The triple quadrupole mass spectrometer is equipped with an ESI source and analytes are monitored using selected reaction monitoring (SRM) in negative mode [M−H]−. F1P is monitored at m/z 259.02/96.9 and ^13C6-fructose-6-phosphate is monitored at m/z 264.99/97. The area ratio values for F1P is calculated using ^13C6-fructose-6-phospate as internal standard.

Assay [2] deals with human KHK-C (Homo sapiens (Human), UniProt P50053). Description: KHK enzyme activity assay, human KHK-C (F1P production, RapidFire MS). The format is biochemical. The following applies: fructose 250 μM, ATP 150 μM; average ± SEM; read-out: hKHK-C IC50. The procedure: as §1, §2, §3, §4, §5, §6
human KHK-C, sequence (P50053 whole entry): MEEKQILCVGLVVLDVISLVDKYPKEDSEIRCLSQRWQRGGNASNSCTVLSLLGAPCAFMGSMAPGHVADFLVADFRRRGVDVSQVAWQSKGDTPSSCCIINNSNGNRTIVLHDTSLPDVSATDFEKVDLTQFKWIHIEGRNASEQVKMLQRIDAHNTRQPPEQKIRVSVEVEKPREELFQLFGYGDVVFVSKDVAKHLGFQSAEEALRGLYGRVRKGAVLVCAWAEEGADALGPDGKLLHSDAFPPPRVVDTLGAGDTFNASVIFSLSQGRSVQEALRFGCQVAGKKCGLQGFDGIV

The structures appear in SMILES notation.

human KHK-A, sequence (P50053 other isoform, or with tags, fused parts or gaps): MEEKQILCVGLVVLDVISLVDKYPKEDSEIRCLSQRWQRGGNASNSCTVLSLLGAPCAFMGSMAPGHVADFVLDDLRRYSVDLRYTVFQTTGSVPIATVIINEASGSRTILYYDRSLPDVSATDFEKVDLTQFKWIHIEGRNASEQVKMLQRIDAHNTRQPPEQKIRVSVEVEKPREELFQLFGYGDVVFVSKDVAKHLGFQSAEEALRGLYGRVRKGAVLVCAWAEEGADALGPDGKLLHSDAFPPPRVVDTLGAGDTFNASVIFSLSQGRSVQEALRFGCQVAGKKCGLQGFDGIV

By IC50 is commonly meant the concentration at which inhibition is half-maximal. With `C[C@H]1CCN1c1nc(-c2cnn(CC(=O)NCCN)c2)cc(C(F)(F)F)n1` [Example 28, N-(2-Aminoethyl)-2-[4-[2-[(2S)-2-methylazetidin-1-yl]-6-(trifluoromethyl)pyrimidin-4-yl]pyrazol-1-yl]acetamide], the half-inhibitory concentration (IC50) was found to be 51 nM in assay [1] and 68 nM in assay [2].
As to `C[C@H]1CCN1c1nc(-c2cnn(C3CNC3)c2)cc(C(F)(F)F)n1` [Example 33, 4-[1-(Azetidin-3-yl)pyrazol-4-yl]-2-[(2S)-2-methylazetidin-1-yl]-6-(trifluoromethyl)pyrimidine], the 50% inhibitory concentration (IC50) in assay [1] worked out at 3.63 ± 1.13 nM; in assay [2], 4.9 ± 1.31 nM.
For `C[C@H]1CCN1c1nc(-c2cnn(CC(O)CO)c2)cc(C(F)(F)F)c1C#N` (single isomer, unassigned; isomer 2) [Example 24b], the concentration for half-maximal inhibition (IC50) in assay [1] came to 6.75 nM; in assay [2], 4.89 nM.
The matching figures for `C[C@H]1CCN1c1nc(-c2cnn(C3CCN(C(=O)CN)CC3)c2)cc(C(F)(F)F)c1C#N` [Example 18, 6-[1-[1-(2-Aminoacetyl)-4-piperidyl]pyrazol-4-yl]-2-[(2S)-2-methylazetidin-1-yl]-4-(trifluoromethyl)pyridine-3-carbonitrile]: 35.6 ± 32.4 nM and 59.2 ± 67.8 nM.
On the same counts, the results for `C[C@H]1[C@H](O)CN1c1nc(-c2cnn([C@H]3CCNC3)c2)cc(C(F)(F)F)n1` [Example 15, (2S,3R)-2-Methyl-1-[4-[1-[(3S)-pyrrolidin-3-yl]pyrazol-4-yl]-6-(trifluoromethyl)pyrimidin-2-yl]azetidin-3-ol] are 26.7 ± 3.66 nM and 27.2 ± 8.6 nM.
On the same counts, the results for `C[C@H]1[C@H](O)CN1c1nc(-c2cnn(C3CNC3)c2)cc(C(F)(F)F)n1` [Example 4, (2S,3R)-1-[4-[1-(Azetidin-3-yl)pyrazol-4-yl]-6-(trifluoromethyl)pyrimidin-2-yl]-2-methyl-azetidin-3-ol] are 11.4 ± 4.34 nM and 14.4 ± 1.12 nM.
In the case of `C[C@H]1CCN1c1nc(-c2cnn(CC(=O)N3C[C@H](O)[C@@H](O)C3)c2)cc(C(F)(F)F)c1C#N` [Example 23, 6-[1-[2-[(3S,4S)-3,4-Dihydroxypyrrolidin-1-yl]-2-oxo-ethyl]pyrazol-4-yl]-2-[(2S)-2-methylazetidin-1-yl]-4-(trifluoromethyl)pyridine-3-carbonitrile], the IC50 worked out at 24.9 ± 15.3 nM in assay [1] and 41.6 ± 47.1 nM in assay [2].
On the same counts, the results for `C[C@H]1[C@H](O)CN1c1nc(-c2cnn(C3CCNCC3)c2)cc(C(F)(F)F)c1C#N` [Example 7, 2-[(2S,3R)-3-Hydroxy-2-methyl-azetidin-1-yl]-6-[1-(4-piperidyl)pyrazol-4-yl]-4-(trifluoromethyl)pyridine-3-carbonitrile] are 6.02 ± 2.27 nM and 18.1 ± 4.85 nM.
The matching figures for `CN1CC(n2cc(-c3cc(C(F)(F)F)nc(N4CC[C@@H]4CO)n3)cn2)C1` [Example 36, [(2R)-1-[4-[1-(1-Methylazetidin-3-yl)pyrazol-4-yl]-6-(trifluoromethyl)pyrimidin-2-yl]azetidin-2-yl]methanol]: 3.98 nM and 10 nM.
The matching figures for `C[C@H]1CCN1c1nc(-c2cn[nH]c2)cc(C(F)(F)F)c1C#N` [Example 25, 2-[(2S)-2-Methylazetidin-1-yl]-6-(1H-pyrazol-4-yl)-4-(trifluoromethyl)pyridine-3-carbonitrile]: 16.9 ± 9.7 nM and 13.6 ± 7.2 nM.
In the case of `C[C@H]1CCN1c1nc(-c2cnn(C3CNC3)c2)cc(C(F)(F)F)c1C#N` [Example 17, 6-[1-(Azetidin-3-yl)pyrazol-4-yl]-2-[(2S)-2-methylazetidin-1-yl]-4-(trifluoromethyl)pyridine-3-carbonitrile], the 50% inhibitory concentration (IC50) was determined as 13.2 ± 12.7 nM in assay [1] and 16.1 ± 7.96 nM in assay [2].
Turning to `C[C@H]1CCN1c1nc(-c2cnn(CC(O)CO)c2)cc(C(F)(F)F)c1C#N` (stereo partly drawn) [Example 24, 6-[1-(2,3-Dihydroxypropyl)pyrazol-4-yl]-2-[(2S)-2-methylazetidin-1-yl]-4-(trifluoromethyl)pyridine-3-carbonitrile], the values for the IC50 in assay [1] and in assay [2] were 7.29 nM and 7.91 nM, respectively.
As to `C[C@H]1CCN1c1nc(-c2cnn(C3CCOCC3)c2)cc(C(F)(F)F)c1C#N` [Example 26, 2-[(2S)-2-Methylazetidin-1-yl]-6-(1-tetrahydropyran-4-ylpyrazol-4-yl)-4-(trifluoromethyl)pyridine-3-carbonitrile], the concentration for half-maximal inhibition (IC50) stood at 22.2 nM in assay [1] and 28.4 nM in assay [2].
On the same counts, the results for `C[C@H]1CNCCN1C(=O)Cn1cc(-c2cc(C(F)(F)F)nc(N3CC[C@@H]3C)n2)cn1` [Example 30, 2-[4-[2-[(2S)-2-Methylazetidin-1-yl]-6-(trifluoromethyl)pyrimidin-4-yl]pyrazol-1-yl]-1-[(2S)-2-methylpiperazin-1-yl]ethanone] are 57.8 nM and 46.3 nM.
Consider `OC[C@H]1CCN1c1nc(-c2cnn(C3CNC3)c2)cc(C(F)(F)F)n1` [Example 3, [(2R)-1-[4-[1-(Azetidin-3-yl)pyrazol-4-yl]-6-(trifluoromethyl)pyrimidin-2-yl]azetidin-2-yl]methanol], for which the IC50 in assay [1] stood at 45.4 ± 29.5 nM; in assay [2], 41.9 ± 6.77 nM.
On the same counts, the results for `C[C@H]1CCN1c1nc(-c2cnn(C3CCNCC3)c2)cc(C(F)(F)F)n1` [Example 13, 2-[(2S)-2-Methylazetidin-1-yl]-4-[1-(4-piperidyl)pyrazol-4-yl]-6-(trifluoromethyl)pyrimidine] are 7.69 ± 7.97 nM and 15.5 ± 20.4 nM.
The matching figures for `C[C@H]1CCN1c1nc(-c2cnn(C3CCN(C)CC3)c2)cc(C(F)(F)F)c1C#N` [Example 8, 2-[(2S)-2-Methylazetidin-1-yl]-6-[1-(1-methyl-4-piperidyl)pyrazol-4-yl]-4-(trifluoromethyl)pyridine-3-carbonitrile]: 25.2 ± 15.7 nM and 56.1 ± 62.5 nM.
On the same counts, the results for `C[C@H]1CCN1c1nc(-c2cnn(C3CCNCC3)c2)cc(C(F)(F)F)c1C#N` [Example 12, 2-[(2S)-2-Methylazetidin-1-yl]-6-[1-(4-piperidyl)pyrazol-4-yl]-4-(trifluoromethyl)pyridine-3-carbonitrile] are 3.65 ± 0.817 nM and 3.87 ± 0.391 nM.
Turning to `N#Cc1c(C(F)(F)F)cc(-c2cnn(C3CCNCC3)c2)nc1N1CC[C@@H]1CO` [Example 6, 2-[(2R)-2-(Hydroxymethyl)azetidin-1-yl]-6-[1-(4-piperidyl)pyrazol-4-yl]-4-(trifluoromethyl)pyridine-3-carbonitrile], the IC50 in assay [1] turned out to be 15.4 ± 5.05 nM; in assay [2], 25.7 ± 5.14 nM.
As to `CC(=O)N1CCC(n2cc(-c3cc(C(F)(F)F)c(C#N)c(N4CC[C@@H]4C)n3)cn2)CC1` [Example 19, 6-[1-(1-Acetyl-4-piperidyl)pyrazol-4-yl]-2-[(2S)-2-methylazetidin-1-yl]-4-(trifluoromethyl)pyridine-3-carbonitrile], the results for the IC50 in assay [1] and in assay [2] were 29.2 nM and 54.3 nM, respectively.
The matching figures for `C[C@@H]1CN(C(=O)Cn2cc(-c3cc(C(F)(F)F)nc(N4CC[C@@H]4C)n3)cn2)[C@@H](C)CN1` [Example 32, 1-[(2S,5R)-2,5-Dimethylpiperazin-1-yl]-2-[4-[2-[(2S)-2-methylazetidin-1-yl]-6-(trifluoromethyl)pyrimidin-4-yl]pyrazol-1-yl]ethanone]: 41.5 nM and 13.3 nM.
On to `C[C@H]1CCN1c1nc(-c2cnn(C3CN(C)C3)c2)cc(C(F)(F)F)n1` [Example 34, 2-[(2S)-2-Methylazetidin-1-yl]-4-[1-(1-methylazetidin-3-yl)pyrazol-4-yl]-6-(trifluoromethyl)pyrimidine], for which the IC50 in assay [1] worked out at 5.41 ± 6.13 nM; in assay [2], 3.71 ± 0.178 nM.
On the same counts, the results for `C[C@H]1[C@H](O)CN1c1nc(-c2cnn([C@@H]3CCNC3)c2)cc(C(F)(F)F)n1` [Example 14, (2S,3R)-2-Methyl-1-[4-[1-[(3R)-pyrrolidin-3-yl]pyrazol-4-yl]-6-(trifluoromethyl)pyrimidin-2-yl]azetidin-3-ol] are 19.1 ± 2.98 nM and 15.9 ± 4.37 nM.
The matching figures for `C[C@H]1CN(C(=O)Cn2cc(-c3cc(C(F)(F)F)nc(N4CC[C@@H]4C)n3)cn2)CCN1` [Example 29, 2-[4-[2-[(2S)-2-Methylazetidin-1-yl]-6-(trifluoromethyl)pyrimidin-4-yl]pyrazol-1-yl]-1-[(3S)-3-methylpiperazin-1-yl]ethanone]: 103 nM and 38.6 nM.
